Experimental data reported in US5110904A (Abbott Laboratories, priority 1990, dated 1992).
Non-standard residues stand in square brackets, D forms with d. Residues, ends and D or L forms follow the SMILES beside them. *: point of attachment. dNMe1Nal = CN[C@H](Cc1cccc2ccccc12)C(=O)O; dPhe(4-Cl) = N[C@H](Cc1ccc(Cl)cc1)C(=O)O; 1Nal = N[C@@H](Cc1cccc2ccccc12)C(=O)O; d1Nal = N[C@H](Cc1cccc2ccccc12)C(=O)O; d2Nal = N[C@H](Cc1ccc2ccccc2c1)C(=O)O; dLys(iPr) = CC(C)NCCCC[C@@H](N)C(=O)O; d(hCit) = NC(=O)NCCCC[C@@H](N)C(=O)O; Lys(iPr) = CC(C)NCCCC[C@H](N)C(=O)O; NMeY = CN[C@@H](Cc1ccc(O)cc1)C(=O)O; dBta = N[C@H](Cc1csc2ccccc12)C(=O)O; d3Pal = N[C@H](Cc1cccnc1)C(=O)O; Cha = N[C@@H](CC1CCCCC1)C(=O)O; d2Thi = N[C@H](Cc1cccs1)C(=O)O; NMeL = CN[C@@H](CC(C)C)C(=O)O; Nicotinoyl = O=C(c1cccnc1)*; Sar = CNCC(=O)O; For = O=C*

Molecular target: T1, LHRH receptors (Rattus norvegicus, UniProt P30969)
T1 sequence (P30969 1-327): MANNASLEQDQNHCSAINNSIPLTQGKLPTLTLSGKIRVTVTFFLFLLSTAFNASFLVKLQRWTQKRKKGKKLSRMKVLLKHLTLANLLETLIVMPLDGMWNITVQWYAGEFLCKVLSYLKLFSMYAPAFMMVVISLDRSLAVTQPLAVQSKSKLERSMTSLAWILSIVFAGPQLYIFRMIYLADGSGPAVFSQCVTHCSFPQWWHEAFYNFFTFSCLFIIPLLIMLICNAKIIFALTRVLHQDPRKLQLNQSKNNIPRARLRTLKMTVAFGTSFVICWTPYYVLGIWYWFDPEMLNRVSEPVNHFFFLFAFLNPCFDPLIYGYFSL
Experiment: Radioligand receptor binding assay, rat pituitary membranes
Conditions: radioiodinated [D-Leu6-des Gly10]-LHRH ethyl amide 50 pM, 2 hours at 4° C., read-out: Receptor Binding pkI (converted)
Method: The radioligand (50 pM), receptors, and compounds to be tested are coincubated for 2 hours at 4° C. Bound ligand is separated from free ligand via centrifugation and aspiration.

Structure (SMILES)	Ki
CC(=O)N(C)CC(=O)N[C@H](Cc1ccc(Cl)cc1)C(=O)N[C@H](Cc1cccc2ccccc12)C(=O)N[C@@H](CO)C(=O)N(C)[C@@H](Cc1ccc(O)cc1)C(=O)N[C@H](CCCCN)C(=O)N[C@@H](CC(C)C)C(=O)N[C@@H](CCCNC(=N)N)C(=O)N1CCC[C@H]1C(=O)N[C@H](C)C(N)=O [Ex. 48, N-Ac-Sar-D-4-Cl-Phe-D-1-Nal-Ser-N-Me-Tyr-D-Lys-Leu-Arg-Pro-D-AlaNH2] (Ac-[Sar][dPhe(4-Cl)][d1Nal]S[NMeY][dK]LRP[dA]-NH2)	0.01 nM
CC(=O)N(C)CC(=O)N[C@H](Cc1ccc(Cl)cc1)C(=O)N[C@H](Cc1cccs1)C(=O)N[C@@H](CO)C(=O)N(C)[C@@H](Cc1ccc(O)cc1)C(=O)N[C@H](CCCCN)C(=O)N[C@@H](CC(C)C)C(=O)N[C@@H](CCCNC(=N)N)C(=O)N1CCC[C@H]1C(=O)N[C@H](C)C(N)=O [Ex. 49, N-Ac-Sar-D-4-Cl-Phe-D-2-Thia-Ser-N-Me-Tyr-D-Lys-Leu-Arg-Pro-D-AlaNH2] (Ac-[Sar][dPhe(4-Cl)][d2Thi]S[NMeY][dK]LRP[dA]-NH2)	0.0316 nM
CC(=O)N(C)CC(=O)N[C@H](Cc1ccc(Cl)cc1)C(=O)N[C@H](Cc1cccc2ccccc12)C(=O)N[C@@H](CO)C(=O)N(C)[C@@H](Cc1ccc(O)cc1)C(=O)N[C@H](Cc1cccnc1)C(=O)N[C@@H](CC(C)C)C(=O)N[C@@H](CCCNC(=N)N)C(=O)N1CCC[C@H]1C(=O)N[C@H](C)C(N)=O [Ex. 50, N-Ac-Sar-D-4-Cl-Phe-D-1-Nal-Ser-N-Me-Tyr-D-3-Pal-Leu-Arg-Pro-D-AlaNH4] (Ac-[Sar][dPhe(4-Cl)][d1Nal]S[NMeY][d3Pal]LRP[dA]-NH2)	0.0138 nM
CC(=O)N(C)CC(=O)N[C@H](Cc1ccc(Cl)cc1)C(=O)N[C@H](Cc1cccc2ccccc12)C(=O)N[C@@H](CO)C(=O)N(C)[C@@H](Cc1ccc(O)cc1)C(=O)N[C@H](CCCCNC(=O)c1cccnc1)C(=O)N[C@@H](CC(C)C)C(=O)N[C@@H](CCCNC(=N)N)C(=O)N1CCC[C@H]1C(=O)N[C@H](C)C(N)=O [Ex. 51, N-Ac-Sar-D-4-Cl-Phe-D-1-Nal-Ser-N-Me-Tyr-D-Tys(N-epsilon-nicotinyl)-Leu-Arg-Pro-D-AlaNH2] (Ac-[Sar][dPhe(4-Cl)][d1Nal]S[NMeY][dK](Nicotinoyl)LRP[dA]-NH2)	0.0269 nM
CC(=O)N(C)CC(=O)N[C@H](Cc1ccc(Cl)cc1)C(=O)N[C@@H](Cc1cccc2ccccc12)C(=O)N[C@@H](CO)C(=O)N(C)[C@@H](Cc1ccc(O)cc1)C(=O)N[C@H](CCCCN)C(=O)N[C@@H](CC(C)C)C(=O)N[C@@H](CCCNC(=N)N)C(=O)N1CCC[C@H]1C(=O)N[C@H](C)C(N)=O [Ex. 52, N-Ac-Sar-D-4-Cl-Phe-1-Nal-Ser-N-Me-Tyr-D-Lys-Leu-Arg-Pro-D-AlaNH4] (Ac-[Sar][dPhe(4-Cl)][1Nal]S[NMeY][dK]LRP[dA]-NH2)	0.017 nM
CC(=O)NCC(=O)N[C@H](Cc1ccc(Cl)cc1)C(=O)N[C@H](Cc1cccc2ccccc12)C(=O)N[C@@H](CO)C(=O)N(C)[C@@H](Cc1ccc(O)cc1)C(=O)N[C@H](CCCCN)C(=O)N[C@@H](CC(C)C)C(=O)N[C@@H](CCCNC(=N)N)C(=O)N1CCC[C@H]1C(=O)N[C@H](C)C(N)=O [Ex. 53, N-Ac-Gly-D-4-Cl-Phe-D-1-Nal-Ser-N-Me-Tyr-D-Lys-Leu-Arg-Pro-D-AlaNH2] (Ac-G[dPhe(4-Cl)][d1Nal]S[NMeY][dK]LRP[dA]-NH2)	0.0132 nM
CC(=O)N[C@H](Cc1ccc(Cl)cc1)C(=O)N[C@H](Cc1ccc(Cl)cc1)C(=O)N[C@H](Cc1csc2ccccc12)C(=O)N[C@@H](CO)C(=O)N(C)[C@@H](Cc1ccc(O)cc1)C(=O)N[C@H](CCCCN)C(=O)N[C@@H](CC(C)C)C(=O)N[C@@H](CCCN=C(N)N)C(=O)N1CCC[C@H]1C(=O)N[C@H](C)C(N)=O [Ex. 54, N-Ac-D-4-Cl-Phe-D-4-Cl-Phe-D-3-Bal-Ser-N-Me-Tyr-D-Lys-Leu-Arg-Pro-D-AlaNH2] (Ac-[dPhe(4-Cl)][dPhe(4-Cl)][dBta]S[NMeY][dK]LRP[dA]-NH2)	0.0339 nM
CC(=O)N[C@H](Cc1ccc(Cl)cc1)C(=O)N[C@H](Cc1ccc(Cl)cc1)C(=O)N[C@H](Cc1cn(C=O)c2ccccc12)C(=O)N[C@@H](CO)C(=O)N(C)[C@@H](Cc1ccc(O)cc1)C(=O)N[C@H](CCCCN)C(=O)N[C@@H](CC(C)C)C(=O)N[C@@H](CCCNC(=N)N)C(=O)N1CCC[C@H]1C(=O)N[C@H](C)C(N)=O [Ex. 55, N-Ac-D-4-Cl-Phe-D-4-Cl-Phe-D-Trp(formyl)-Ser-N-Me-Tyr-D-Lys-Leu-Arg-Pro-D-AlaNH2] (Ac-[dPhe(4-Cl)][dPhe(4-Cl)][dW](For)S[NMeY][dK]LRP[dA]-NH2)	0.0219 nM
CC(=O)N[C@H](Cc1ccc(Cl)cc1)C(=O)N[C@H](Cc1ccc(Cl)cc1)C(=O)N(C)[C@H](Cc1cccc2ccccc12)C(=O)N[C@@H](CO)C(=O)N(C)[C@@H](Cc1ccc(O)cc1)C(=O)N[C@H](CCCCN)C(=O)N[C@@H](CC(C)C)C(=O)N[C@@H](CCCNC(=N)N)C(=O)N1CCC[C@H]1C(=O)N[C@H](C)C(N)=O [Ex. 56, N-Ac-D-4-Cl-Phe-D-4-Cl-Phe-N-Me-D-1-Nal-Ser-N-Me-Tyr-D-Lys-Leu-Arg-Pro-D-AlaNH2] (Ac-[dPhe(4-Cl)][dPhe(4-Cl)][dNMe1Nal]S[NMeY][dK]LRP[dA]-NH2)	0.676 nM
CC(=O)N[C@H](Cc1ccc(Cl)cc1)C(=O)N[C@H](Cc1ccc(Cl)cc1)C(=O)N[C@H](Cc1ccc2ccccc2c1)C(=O)N[C@@H](CO)C(=O)N(C)[C@@H](Cc1ccc(O)cc1)C(=O)N[C@H](CCCCNC(=O)c1cccnc1)C(=O)N(C)[C@@H](CC(C)C)C(=O)N[C@@H](CCCNC(=N)N)C(=O)N1CCC[C@H]1C(=O)N[C@H](C)C(N)=O [Ex. 57, N-Ac-D-4-Cl-Phe-D-4-Cl-Phe-D-2-Nal-Ser-N-Me-Tyr-D-Lys(N-epsilon-nicotinyl)- N-Me-Leu-Arg-Pro-D-AlaNH2] (Ac-[dPhe(4-Cl)][dPhe(4-Cl)][d2Nal]S[NMeY][dK](Nicotinoyl)[NMeL]RP[dA]-NH2)	0.372 nM
CC(=O)N[C@H](Cc1ccc(Cl)cc1)C(=O)N[C@H](Cc1ccc(Cl)cc1)C(=O)N[C@H](Cc1cccs1)C(=O)N[C@@H](CO)C(=O)N[C@@H](Cc1ccc(O)cc1)C(=O)N[C@H](CCCCN)C(=O)N[C@@H](CC(C)C)C(=O)N[C@@H](CCCNC(=N)N)C(=O)N1CCC[C@H]1C(=O)N(C)CC(N)=O [Ex. 58, N-Ac-D-4-Cl-Phe-D-4-Cl-Phe-D-2-Thia-Ser-Tyr-D-Lys-Leu-Arg-Pro-SarNH2] (Ac-[dPhe(4-Cl)][dPhe(4-Cl)][d2Thi]SY[dK]LRP[Sar]-NH2)	0.00871 nM
CC(=O)N[C@H](Cc1ccc(Cl)cc1)C(=O)N[C@H](Cc1ccc(Cl)cc1)C(=O)N[C@H](Cc1cccc2ccccc12)C(=O)N[C@@H](CO)C(=O)N(C)[C@@H](Cc1ccc(O)cc1)C(=O)N[C@H](CCCCNC(N)=O)C(=O)N[C@@H](CC(C)C)C(=O)N[C@@H](CCCNC(=N)N)C(=O)N1CCC[C@H]1C(=O)N[C@H](C)C(N)=O [Ex. 59, N-Ac-D-4-Cl-Phe-D-4-Cl-Phe-D-1-Nal-Ser-N-Me-Tyr-D-H-Cit-Leu-Arg-Pro-D-AlaNH2] (Ac-[dPhe(4-Cl)][dPhe(4-Cl)][d1Nal]S[NMeY][d(hCit)]LRP[dA]-NH2)	0.0977 nM
CC(=O)N[C@H](Cc1ccc(Cl)cc1)C(=O)N[C@H](Cc1ccc(Cl)cc1)C(=O)N[C@H](Cc1csc2ccccc12)C(=O)N[C@@H](CO)C(=O)N(C)[C@@H](Cc1ccc(O)cc1)C(=O)N[C@H](CCCCNC(C)C)C(=O)N[C@@H](CC(C)C)C(=O)N[C@@H](CCCNC(=N)N)C(=O)N1CCC[C@H]1C(=O)N[C@H](C)C(N)=O [Ex. 60, N-Ac-D-4-Cl-Phe-D-4-Cl-Phe-D-3-Bal-Ser-N-Tyr-D-Lys(N-epsilon-isopropyl)-Leu-Arg-Pro-D-AlaNH2] (Ac-[dPhe(4-Cl)][dPhe(4-Cl)][dBta]S[NMeY][dLys(iPr)]LRP[dA]-NH2)	0.0229 nM
CC(=O)N[C@H](Cc1ccc2ccccc2c1)C(=O)N[C@H](Cc1ccc(Cl)cc1)C(=O)N[C@H](Cc1cccnc1)C(=O)N[C@@H](CO)C(=O)N(C)[C@@H](Cc1ccc(O)cc1)C(=O)N[C@H](Cc1cccnc1)C(=O)N[C@@H](CC(C)C)C(=O)N[C@@H](CCCCNC(C)C)C(=O)N1CCC[C@H]1C(=O)N[C@H](C)C(N)=O [Ex. 61, N-Ac-D-2-Nal-D-4-Cl-Phe-D-3-Pal-Ser-N-Me-Tyr-D-3-Pal-Leu-Lys(N-epsilon-isopropyl)-Pro-D-AlaNH2] (Ac-[d2Nal][dPhe(4-Cl)][d3Pal]S[NMeY][d3Pal]L[Lys(iPr)]P[dA]-NH2)	0.049 nM
CC(=O)N(C)CC(=O)N[C@H](Cc1ccc(Cl)cc1)C(=O)N[C@H](Cc1csc2ccccc12)C(=O)N[C@@H](CO)C(=O)N(C)[C@@H](Cc1ccc(O)cc1)C(=O)N[C@H](CCCCNC(=O)c1cccnc1)C(=O)N[C@@H](CC(C)C)C(=O)N[C@@H](CCCCNC(C)C)C(=O)N1CCC[C@H]1C(=O)N[C@H](C)C(N)=O [Ex. 64, N-Ac-Sar-D-4-Cl-Phe-D-3-Bal-Ser-N-Me-Tyr-D-Lys(N-epsilon-nicotinyl)-Leu-Lys(N-epsilon-isopropyl)-Pro-D-Ala-NH2] (Ac-[Sar][dPhe(4-Cl)][dBta]S[NMeY][dK](Nicotinoyl)L[Lys(iPr)]P[dA]-NH2)	0.0102 nM
CC(=O)N[C@H](Cc1ccc2ccccc2c1)C(=O)N[C@H](Cc1ccc(Cl)cc1)C(=O)N[C@H](Cc1cccnc1)C(=O)N[C@@H](CO)C(=O)N(C)[C@@H](Cc1ccc(O)cc1)C(=O)N[C@H](CCCCNC(=O)c1cccnc1)C(=O)N[C@@H](CC1CCCCC1)C(=O)N[C@@H](CCCNC(=N)N)C(=O)N1CCC[C@H]1C(=O)N[C@H](C)C(N)=O [Ex. 66, N-Ac-D-2-Nal-D-4-Cl-Phe-D-3-Pal-Ser-N-Me-Tyr-D-Lys(N-epsilon-nicotinyl)-Cha-Arg-Pro-D-AlaNH2] (Ac-[d2Nal][dPhe(4-Cl)][d3Pal]S[NMeY][dK](Nicotinoyl)[Cha]RP[dA]-NH2)	0.0141 nM
